According to patent publication US20240382572A1, “COMBINATIONS OF CHECKPOINT INHIBITORS AND THERAPEUTICS TO TREAT CANCER” (Cognate Bioservices, Inc., priority 2013, published 2024):

Experiments:
[1] = test system: GL261 murine glioma; experiment: Flow cytometry of tumor, lymph node and spleen harvests from GL261 glioma-bearing mice; format: in vivo, C57BL/6 mice
Protocol: Mice were intracranially implanted with GL261 murine glioma and then administered PBS (Ix) or lysate-pulsed DC vaccine subcutaneously on days 3 and 13 post-tumor implant. On day 16, 72 h after the second treatment, mice were euthanized and spleen, lymph, and brain hemispheres harvested for processing.
Spleen, lymph, and brain hemispheres harvested for processing on day 16 post-implant (72 h after second treatment).
Bone marrow-derived DC and vaccination. […] Briefly, bone marrow cells were cultured in a humidified atmosphere of 5% CO2 at 37° C. overnight in complete RPMI (Mediatech, Inc. Herndon, VA) (supplemented with 10% FBS, 1% (v/v) penicillin and streptomycin). The day following, nonadherent cells were collected and plated with murine interleukin-4 (IL-4, 400 IU/mL, R&D Systems, Minneapolis, MN) and murine granulocyte-macrophage colony stimulating factor (GM-CSF, 100 ng/mL, R&D Systems, Minneapolis, MN). On day 4, adherent cells were re-fed with fresh media with the same cytokines. On day 7, DCs were harvested and resuspended at 1×10^6 cells/ml in complete RPMI and pulsed with GL261 lysate (250 μg/mL). On day 8, DCs were collected and resuspended at 2×10^6 cells/mL in PBS Ix and immediately prepared for injection in 0.2 mL of cell suspension per mouse. Injections were given subcutaneously (s.c.) at 4 sites on the back.
Intracranial glioma implants. […]

[2] = test system: GL261 murine glioma; experiment: Survival of mice with intracranial GL261 glioma; format: in vivo, C57BL/6 mice; conditions: mice with well-established intracranial GL261 glioma
[3] = target: T1, PD-1 (Homo sapiens, UniProt Q15116); conditions: phase II, DLBCL, cited from earlier work
T1 construct: host or cells: Trial subjects (patients); PD-1 is endogenous
T1 sequence (Q15116 25-288): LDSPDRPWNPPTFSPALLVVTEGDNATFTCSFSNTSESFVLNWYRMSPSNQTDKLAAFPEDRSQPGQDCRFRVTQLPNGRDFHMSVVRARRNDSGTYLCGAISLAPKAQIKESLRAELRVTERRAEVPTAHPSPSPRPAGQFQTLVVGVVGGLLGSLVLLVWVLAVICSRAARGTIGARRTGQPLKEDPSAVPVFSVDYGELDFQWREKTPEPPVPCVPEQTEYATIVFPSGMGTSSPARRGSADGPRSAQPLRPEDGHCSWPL

| Compound | myeloid cells expressing PD-L1 (Thy1.2- Ly6C+ PD-L1+) in tumor [1] | activated tumor-infiltrating lymphocytes (CD3+ CD8+ CD25+) ([1]; day 16 post-implant) | survival [2] | subjects alive ([3]; preliminary results) | subjects progression-free at the end of the follow-up period ([3]; preliminary results) | activity of natural killer cells [3] |
| --- | --- | --- | --- | --- | --- | --- |
| FC(F)(F)c1ccc(CNc2ccc(Cc3c[nH]c4ncc(Cl)cc34)cn2)cn1 [PLX3397] | absence of these Ly6C^+ PD-L1^+ cells | significant tumor-infiltrating population | entirely recovered survival benefit | – | – | – |
| CT-011: humanized IgG1 monoclonal antibody against PD-1 | – | – | – | 82% | 70% | augments the activity of natural killer cells |
